Results: patent US11230538B2, “Herbicides” (SYNGENTA PARTICIPATIONS AG, priority 2016, dated 2022)

Legend:
Format in all cases: in vivo
[1] = system: Alopecurus myosuroides (ALOMY); experiment: B1 Pre-emergence herbicidal activity; design: key: 5=total damage to plant; 0=no damage to plant; conditions: pre-emergence application, evaluated after 13 days
Method: (§1) Seeds of a variety of test species were sown in standard soil in pots: Triticum aestivium (TRZAW), Avena fatua (AVEFA), Alopecurus myosuroides (ALOMY), Echinochloa crus-galli (ECHCG), Lolium perenne (LOLPE), Zea Mays (ZEAMX), Abutilon theophrasti (ABUTH), Amaranthus retroflexus (AMARE) and Setaria fabenr (SETFA). After cultivation for one day (pre-emergence) under controlled conditions in a glasshouse (at 24/16° C., day/night; 14 hours light; 65% humidity), the plants were sprayed with an aqueous spray solution derived from the formulation of the technical active ingredient in acetone I water (50:50) solution containing 0.5% Tween 20 (polyoxyethelyene sorbitan monolaurate, CAS RN 9005-64-5). The test plants were then grown in a glasshouse under controlled conditions (at 24/16° C., day/night; 14 hours light; 65% humidity) and watered twice daily. After 13 days, the test was evaluated (5=total damage to plant; 0=no damage to plant).

[2] = system: Avena fatua (AVEFA); experiment: B1 Pre-emergence herbicidal activity; design: key: 5=total damage to plant; 0=no damage to plant; conditions: pre-emergence application, evaluated after 13 days
Method: as §1

[3] = system: Triticum aestivium (TRZAW); experiment: B1 Pre-emergence herbicidal activity; design: key: 5=total damage to plant; 0=no damage to plant; conditions: pre-emergence application, evaluated after 13 days
Method: as §1

[4] = system: Echinochloa crus-galli (ECHCG); experiment: B1 Pre-emergence herbicidal activity; design: key to Pre-emergence herbicidal activity, ECHCG (damage score 0-5): 5=total damage to plant; 0=no damage to plant; conditions: pre-emergence application, evaluated after 13 days
Method: as §1

[5] = system: Lolium perenne (LOLPE); experiment: B1 Pre-emergence herbicidal activity; design: key to Pre-emergence herbicidal activity, LOLPE (damage score 0-5): 5=total damage to plant; 0=no damage to plant; conditions: pre-emergence application, evaluated after 13 days
Method: as §1

[6] = system: Setaria fabenr (SETFA); experiment: B1 Pre-emergence herbicidal activity; design: key to Pre-emergence herbicidal activity, SETFA (damage score 0-5): 5=total damage to plant; 0=no damage to plant; conditions: pre-emergence application, evaluated after 13 days
Method: as §1

[7] = system: Echinochloa crus-galli (ECHCG); experiment: B2 Post-emergence herbicidal activity; conditions: post-emergence application, evaluated after 13 days
Method: (§2) Seeds of a variety of test species were sown in standard soil in pots: Triticum aestivium (TRZAW), Avena fatua (AVEFA), Alopecurus myosuroides (ALOMY), Echinochloa crus-galli (ECHCG), Lolium perenne (LOLPE), Zea Mays (ZEAMX), Abutilon theophrasti (ABUTH), Amaranthus retroflexus (AMARE) and Setaria fabenri (SETFA). After 8 days cultivation (post-emergence) under controlled conditions in a glasshouse (at 24/16° C., day/night; 14 hours light; 65% humidity), the plants were sprayed with an aqueous spray solution derived from the formulation of the technical active ingredient in acetone I water (50:50) solution containing 0.5% Tween 20 (polyoxyethelyene sorbitan monolaurate, CAS RN 9005-64-5). The test plants were then grown in a glasshouse under controlled conditions (at 24/16° C., day/night; 14 hours light; 65% humidity) and watered twice daily. After 13 days, the test was evaluated (5=total damage to plant; 0=no damage to plant).

[8] = system: Alopecurus myosuroides (ALOMY); experiment: B2 Post-emergence herbicidal activity; design: key: 5=total damage to plant; 0=no damage to plant; conditions: post-emergence application, evaluated after 13 days
Method: as §2

[9] = system: Setaria fabenri (SETFA); experiment: B2 Post-emergence herbicidal activity; design: key: 5=total damage to plant; 0=no damage to plant; conditions: post-emergence application, evaluated after 13 days
Method: as §2

[10] = system: Triticum aestivium (TRZAW); experiment: B2 Post-emergence herbicidal activity; design: key: 5=total damage to plant; 0=no damage to plant; conditions: post-emergence application, evaluated after 13 days
Method: as §2

Row | SMILES | Pre-emergence herbicidal activity, ALOMY (damage score 0-5) ([1]; rate 1000 g/ha) | Pre-emergence herbicidal activity, AVEFA (damage score 0-5) ([2]; rate 1000 g/ha) | Pre-emergence herbicidal activity, TRAZW (damage score 0-5) ([3]; rate 1000 g/ha) | Pre-emergence herbicidal activity, ECHCG (damage score 0-5) ([4]; rate 1000 g/ha) | Pre-emergence herbicidal activity, LOLPE (damage score 0-5) ([5]; rate 1000 g/ha) | Pre-emergence herbicidal activity, SETFA (damage score 0-5) ([6]; rate 1000 g/ha) | Post-emergence herbicidal activity, ECHCG (damage score 0-5) ([7]; rate 1000 g/ha) | Post-emergence herbicidal activity, ALOMY (damage score 0-5) ([8]; rate 1000 g/ha) | Post-emergence herbicidal activity, SETFA (damage score 0-5) ([9]; rate 1000 g/ha) | Post-emergence herbicidal activity, TRAZW (damage score 0-5) ([10]; rate 1000 g/ha) | Pre-emergence herbicidal activity, ALOMY (damage score 0-5) ([1]; rate 250 g/ha) | Pre-emergence herbicidal activity, AVEFA (damage score 0-5) ([2]; rate 250 g/ha) | Pre-emergence herbicidal activity, TRAZW (damage score 0-5) ([3]; rate 250 g/ha) | Pre-emergence herbicidal activity, ECHCG (damage score 0-5) ([4]; rate 250 g/ha) | Pre-emergence herbicidal activity, LOLPE (damage score 0-5) ([5]; rate 250 g/ha) | Pre-emergence herbicidal activity, SETFA (damage score 0-5) ([6]; rate 250 g/ha) | Post-emergence herbicidal activity, ECHCG (damage score 0-5) ([7]; rate 250 g/ha) | Post-emergence herbicidal activity, ALOMY (damage score 0-5) ([8]; rate 250 g/ha) | Post-emergence herbicidal activity, SETFA (damage score 0-5) ([9]; rate 250 g/ha) | Post-emergence herbicidal activity, TRAZW (damage score 0-5) ([10]; rate 250 g/ha)
1 | CCN(CC)CCCN(C(=O)C(C)C)c1ccc(-c2cncc(F)c2)nc1C(F)(F)F [Compound C69] | 0 | 1 | 0 | 3 | 0 | 5 | 3 | 0 | 4 | 0 |  |  |  |  |  |  |  |  |  | 
2 | CCC(=O)N(CCSC)c1ccc(-c2cncc(F)c2)nc1C(F)(F)F [Compound C98] | 0 | 0 | 0 | 1 | 1 | 3 | 1 | 0 | 0 | 0 |  |  |  |  |  |  |  |  |  | 
3 | CSCCN(C(=O)c1ccccc1)c1ccc(-c2cncc(F)c2)nc1C(F)(F)F [Compound C104] |  |  |  |  |  |  |  |  |  |  | 0 | 0 | 0 | 0 | 0 | 3 | 1 | 0 | 2 | 0
4 | CCC(=O)N(CC=C(C)C)c1ccc(-c2cncc(F)c2)nc1C(F)(F)F [Compound C73] | 0 | 2 | 0 | 4 | 0 | 5 | 4 | 0 | 5 | 0 |  |  |  |  |  |  |  |  |  | 
5 | COCC(=O)N(CC=C(C)C)c1ccc(-c2cncc(F)c2)nc1C(F)(F)F [Compound C106] | 0 | 2 | 0 | 3 | 1 | 4 | 4 | 0 | 5 | 0 |  |  |  |  |  |  |  |  |  | 
6 | CC(C)C(=O)N(CC1CC1)c1ccc(-c2cncc(F)c2)nc1C(F)(F)F [Compound C87] | 0 | 0 | 0 | 2 | 0 | 5 | 3 | 0 | 4 | 0 |  |  |  |  |  |  |  |  |  | 
7 | CCC(=O)N(COCC(F)(F)F)c1ccc(-c2cncc(F)c2)nc1C(F)(F)F [Compound C72] | 0 | 0 | 0 | 1 | 0 | 4 | 2 | 0 | 3 | 0 |  |  |  |  |  |  |  |  |  | 
8 | O=C(c1ccccc1)N(Cc1cnc(Cl)s1)c1ccc(-c2cncc(F)c2)nc1C(F)(F)F [Compound C78] | 0 | 0 | 0 | 1 | 0 | 2 | 1 | 0 | 3 | 0 |  |  |  |  |  |  |  |  |  | 
9 | O=C(c1ccccc1)N(Cc1ccc(Cl)cc1)c1ccc(-c2cncc(F)c2)nc1C(F)(F)F [Compound C77] | 0 | 0 | 0 | 0 | 0 | 1 | 1 | 0 | 2 | 0 |  |  |  |  |  |  |  |  |  | 
10 | CC(C)CN(C(=O)C(C)C)c1ccc(-c2cncc(F)c2)nc1C(F)(F)F [Compound C86] | 0 | 0 | 0 | 0 | 0 | 1 | 1 | 0 | 1 | 0 |  |  |  |  |  |  |  |  |  | 
11 | CCC(=O)N(CC1CC1)c1ccc(-c2cncc(F)c2)nc1C(F)(F)F [Compound C108] | 0 | 1 | 0 | 2 | 1 | 5 | 3 | 0 | 4 | 0 |  |  |  |  |  |  |  |  |  | 
12 | CCC(=O)N(CC(=O)N(C)C)c1ccc(-c2cncc(F)c2)nc1C(F)(F)F [Compound C71] | 0 | 1 | 1 | 4 | 1 | 5 | 4 | 0 | 5 | 0 |  |  |  |  |  |  |  |  |  | 
13 | COCC(=O)N(Cc1cnc(Cl)s1)c1ccc(-c2cncc(F)c2)nc1C(F)(F)F [Compound C83] | 0 | 1 | 0 | 2 | 1 | 4 | 2 | 0 | 3 | 0 |  |  |  |  |  |  |  |  |  | 
